From US9750759B2, “Antitumoral compounds” (priority 2008, dated 2017)
Read-outs that look alike come from different tables or passages of the source.

How the values were obtained:
Assay in all cases: cells
Type in all cases: cell-based
HT29 = conditions: Homo sapiens; for GI50: concentration that produces 50% growth inhibition; for IC (total growth inhibition): total growth inhibition (cytostatic effect), read-out: TGI
Description: (§1) The aim of this assay is to evaluate the in vitro cytostatic (ability to delay or arrest tumor cell growth) or cytotoxic (ability to kill tumor cells) activity of the samples being tested.
(§2) A colorimetric type of assay, using sulforhodamine B (SRB) reaction has been adapted for a quantitative measurement of cell growth and viability (following the technique described by Skehan P et al. J. Natl. Cancer Inst. 1990, 82, 1107-1112).
(§3) This form of assay employs SBS-standard 96-well cell culture microplates (Faircloth et al. Methods in cell science, 1988, 11(4), 201-205; Mosmann et al, Journal of Immunological. Methods, 1983, 65(1-2), 55-63). All the cell lines used in this study, derived from different types of human cancer, were obtained from the American Type Culture Collection (ATCC).
(§4) Cells were maintained in Dulbecco's Modified Eagle Medium (DMEM) supplemented with 10% Fetal Bovine Serum (FBS), 2 mM L-glutamine, 100 U/mL penicillin and 100 U/mL streptomycin at 37° C., 5% CO2 and 98% humidity. For the experiments, cells were harvested from subconfluent cultures using trypsinization and resuspended in fresh medium before counting and plating.
(§5) Cells were seeded in 96 well microtiter plates at 5×10^3 cells per well in aliquots of 150 μL, and allowed to attach to the plate surface for 18 hours in drug free medium. One control (untreated) plate of each cell line was fixed (as described below) and used for time zero reference value. Afterwards, test samples were added to the cultures in ten serial dilutions, in aliquots of 50 μL, ranging from 10 to 0.00262 μg/mL. After 48 hours exposure, the antitumor effect was estimated by the SRB method: Briefly, cells were washed twice with PBS, fixed for 15 min in 1% glutaraldehyde solution, rinsed twice in PBS, and stained in 0.4% SRB solution for 30 min at room temperature. Cells were then rinsed several times with 1% acetic acid solution and air-dried. SRB was then extracted in 10 mM trizma base solution and the absorbance measured in an automated spectrophotometric plate reader at 490 nm. Cell survival was expressed as percentage of control cell growth. The final effect of the sample being tested was estimated by applying the NCI algorithm (Boyd M R and Paull K D. Drug Dev. Res. 1995, 34, 91-104).
(§6) Using the mean±SD of triplicate cultures, a dose-response curve was automatically generated using nonlinear regression analysis. Three reference parameters were calculated (NCI algorithm) by automatic interpolation: GI50=concentration that produces 50% growth inhibition; TGI=total growth inhibition (cytostatic effect) and LC50=concentration that produces 50% net cell killing (cytotoxic effect).

A549 = conditions: Homo sapiens; for GI50: concentration that produces 50% growth inhibition; for IC (total growth inhibition): total growth inhibition (cytostatic effect), read-out: TGI
Description: as §1, §2, §3, §4, §5, §6

MDA-MB-231 = conditions: Homo sapiens; for IC (total growth inhibition): read-out: TGI; for GI50: concentration that produces 50% growth inhibition
Description: as §1, §2, §3, §4, §5, §6

[1] = MDA-MB-231, 48 h, read-out: LC50
[2] = MDA-MB-231, 48 hours exposure, total growth inhibition (cytostatic effect)
[3] = HT-29, HT29, 48 hours exposure, concentration that produces 50% net cell killing, read-out: LC50 (the source's name)
[4] = A549, 48 hours exposure, concentration that produces 50% net cell killing, read-out: LC50 (the source's name)
[5] = MDA-MB-231, 48 hours exposure, concentration that produces 50% net cell killing, read-out: LC50 (the source's name)

Row | SMILES | CC50 (HT29; HT-29, 48 h, read-out: LC50) [nM] | GI50 (HT29; HT-29, HT29, 48 hours exposure) [nM] | IC (total growth inhibition) (HT29; HT-29, HT29, 48 hours exposure) [µM] | CC50 (A549; A549, 48 h, read-out: LC50) [nM] | GI50 (A549; A549, 48 hours exposure) [nM] | IC (total growth inhibition) (A549; A549, 48 hours exposure) [µM] | CC50 (MDA-MB-231; [1]) [nM] | IC (total growth inhibition) (MDA-MB-231; MDA-MB-231, 48 h) [µM] | GI50 (MDA-MB-231; MDA-MB-231, 48 hours exposure) [nM] | IC (total growth inhibition) (MDA-MB-231; [2]) [µM] | CC50 (HT29; [3]) [nM] | CC50 (A549; [4]) [nM] | CC50 (MDA-MB-231; [5]) [nM]
1 | COC1=CC[C@@H]([C@@H](C)/C=C(C)/C=C\C#CC(=O)N[C@H](C(=O)N/C=C\C[C@@H](O)C/C=C(\C)Cl)C(C)C)OC1=O [Compound 65b] | > 18300 | 183 | 0.494 | > 18300 | 311 | 1.81 | > 18300 | > 18.3 | 548 |  |  |  | 
2 | CC#CC[C@H](O)C/C=C\NC(=O)[C@@H](NC(=O)\C=C/C=C\C(C)=C\[C@H](C)[C@@H]1CC=C(OC)C(=O)O1)C(C)(C)C [Compound 71] | > 19000 | 58.9 | 0.175 | 8540 | 266 | 1.84 | > 19000 |  | 209 | 2.85 |  |  | 
3 | C/C=C\C[C@H](O)C/C=C\NC(=O)[C@@H](NC(=O)C#C/C=C\C(C)=C\[C@H](C)[C@@H]1CC=C(OC)C(=O)O1)C(C)(C)C [Compound 80] | > 19000 | 49.4 | 0.0949 | > 19000 | 93 | 0.304 | > 19000 |  | 152 | > 19 |  |  | 
4 | C/C=C\C[C@@H](C/C=C\NC(=O)[C@@H](NC(=O)\C=C/C=C\C(C)=C\[C@H](C)[C@@H]1CC=C(OC)[C@H](O)O1)C(C)(C)C)OC(N)=O [Compound 89] | 0.227 | 0.0802 | 0.000127 | 0.819 | 0.138 | 0.000279 | > 1.74 | > 0.00174 | 0.296 |  |  |  | 
5 | COC1=CC[C@@H]([C@@H](C)/C=C(C)/C=C\C=C/C(=O)N[C@H](C(=O)N/C=C\C[C@H](C/C=C(\C)Cl)OC(N)=O)C(C)(C)C)O[C@H]1O [Compound 85] | 1.97 | 0.345 | 0.000625 | > 16.4 | 0.723 | 0.00164 | > 16.4 |  | 1.02 | 0.00181 |  |  | 
6 | COC1=CC[C@@H]([C@@H](C)/C=C\C=C/C(=O)N[C@H](C(=O)N/C=C\C[C@H](C/C=C(\C)Cl)O[Si](C)(C)C(C)(C)C)C(C)(C)C)OC1=O [Compound 67] |  | 1880 | 2.35 |  | 1570 | 2.82 |  |  | 910 | 1.04 | 3140 | 4860 | 1210
7 | COC1=CC[C@@H]([C@@H](C)/C=C(C)/C=C\C#CCCC(=O)N[C@H](C(=O)N/C=C\C[C@H](C/C=C(\C)Cl)O[Si](c2ccccc2)(c2ccccc2)C(C)(C)C)C(C)(C)C)OC1=O [Compound 98] |  | 53.2 | 0.0701 |  | 111 | 0.495 |  |  | 104 | 0.181 | 169 | > 12100 | > 12100
8 | CC#CC[C@@H](C/C=C\NC(=O)[C@@H](NC(=O)\C=C/C=C\C(C)=C\[C@H](C)[C@@H]1CC=C(OC)C(=O)O1)C(C)(C)C)OC(N)=O [Compound 72] | > 176 | 0.0579 | 0.000125 | > 176 | 0.176 | 0.00281 | > 176 |  | 0.246 | 0.00193 |  |  | 
9 | COC1=CC[C@@H]([C@@H](C)/C=C(C)/C=C\C#CC(=O)NC(C(=O)N/C=C\C[C@H](C/C=C(\C)Cl)O[Si](c2ccccc2)(c2ccccc2)C(C)(C)C)C(C)(C)C)OC1=O (stereo partly drawn) [Compound 78] |  | > 12500 | > 12.5 |  | > 12500 | > 12.5 |  |  | > 12500 | > 12.5 | > 12500 | > 12500 | > 12500
10 | COC1=CC[C@@H]([C@@H](C)/C=C(C)/C=C\C#CC(=O)N[C@H](C(=O)N/C=C\C[C@H](C/C=C(\C)Cl)OC(N)=O)C(C)C)OC1=O [Compound 66b] | 42.4 | 22 | 0.0288 | > 16900 | 25.4 | 0.0813 | 4580 |  | 27.1 | 0.373 |  |  | 
11 | COC1=CC[C@@H]([C@@H](C)/C=C(C)/C=C\C#CC(=O)N[C@H](C(=O)N/C=C\C[C@H](C/C=C(\C)Cl)O[Si](C)(C)C(C)(C)C)C(C)C)OC1=O [Compound 64b] |  | 423 | 0.65 |  | 680 | 3.33 |  |  | 1330 | > 15.1 | 2420 | > 15100 | > 15100
12 | COC1=CC[C@@H]([C@@H](C)/C=C(C)/C=C\C#CCCC(=O)N[C@H](C(=O)N/C=C\C[C@H](C/C=C(\C)Cl)OC(N)=O)C(C)(C)C)OC1=O [Compound 100] | 7590 | 53.8 | 0.301 | > 15800 | 395 | 2.21 | > 15800 | > 15.8 | 348 |  |  |  | 
13 | CC#CC[C@@H](C/C=C\NC(=O)[C@@H](NC(=O)\C=C/C=C\C(C)=C\[C@H](C)[C@@H]1CC=C(OC)C(=O)O1)C(C)(C)C)O[Si](c1ccccc1)(c1ccccc1)C(C)(C)C [Compound 70] |  | 1960 | 2.74 |  | 2090 | 2.61 |  |  | 1700 | 2.48 | 4050 | 3270 | 3530
14 | C/C=C\C[C@H](O)C/C=C\NC(=O)[C@@H](NC(=O)/C=C\C#C/C(C)=C/[C@H](C)[C@@H]1CC=C(OC)C(=O)O1)C(C)(C)C [Compound 96] | > 19000 | 5890 | 8.92 | > 19000 | 7780 | > 19 | > 19000 |  | 13100 | > 19 |  |  | 
15 | COC1=CC[C@@H]([C@@H](C)/C=C(C)/C=C\C#CC(=O)N[C@H](C(=O)N/C=C\C[C@H](C/C=C(\C)Cl)OC(N)=O)C(C)(C)C)OC1=O [Compound 66a] | 2810 | 12.1 | 0.0513 | > 16600 | 33.1 | 0.397 | > 16600 |  | 44.7 | 0.778 |  |  | 
16 | C/C=C\C[C@@H](C/C=C\NC(=O)[C@@H](NC(=O)C#C/C=C\C(C)=C\[C@H](C)[C@@H]1CC=C(OC)C(=O)O1)C(C)(C)C)O[Si](c1ccccc1)(c1ccccc1)C(C)(C)C [Compound 79] |  | 5100 | > 13.1 |  | > 13100 | > 13.1 |  |  | > 13100 | > 13.1 | > 13100 | > 13100 | > 13100
17 | COC1=CC[C@@H]([C@@H](C)/C=C(C)/C=C\C#CC(=O)N[C@H](C(=O)N/C=C\C[C@H](C/C=C(\C)Cl)O[Si](C)(C)C(C)(C)C)C(C)(C)C)OC1=O [Compound 64a] |  | 2220 | 4.29 |  | 4440 | > 14.8 |  |  | 4890 | > 14.8 | > 14800 | > 14800 | > 14800
